Laboratory results as given in ChEMBL document CHEMBL5244280, “Evodiamine Lowers Blood Lipids by Up-Regulating the PPARγ/ABCG1 Pathway in High-Fat-Diet-Fed Mice” (J Nat Prod, 2021).

System: HEK293
Experiment: Agonist activity at human PPAR-beta expressed in HEK293 cells co-transfected with luciferase reporter plasmid assessed as receptor transactivation at 10 nM incubated for 18 hrs by luciferase reporter gene assay relative to control
Format: cell-based
Settings: filed as agonist

Compound: Cc1cc(SCc2sc(-c3ccc(C(F)(F)F)c(F)c3)nc2C)ccc1OCC(=O)O
- fold change (FC): 18.3
